From PMC4747398, “Isothiocyanatostilbenes as novel c-Met inhibitors” (Oncotarget, 2015)
Where two headings read alike, the source gives them in different places.

Columns and labels:
Akt = assay: Downstream Akt phosphorylation, western blot, DU145; type: cell-based; conditions: DU145, serum-free, HGF, ~8 μM compound
Description: (§1) Cells were grown to ~70% confluency prior to treatment. Cells were serum-starved in serum-free media for 30 minutes prior to treatment in complete media or serum-free media for the indicated times. Cell lysates were collected in Laemmli (125 mM Tris, 4% SDS, 0.01% bromophenol blue, 30% sucrose) containing 0.5% β-mercaptoethanol and boiled ~8 minutes. Primary antibodies include: phospho-c-Met (Y1234/1235), phospho-Akt (S473), pEGFR (S845), pIGF-IRβ (Y1135/1136) (Cell Signaling Technology; Beverly, MA); α-actin (Sigma-Aldrich), c-Met (C-28) (Life Technologies). Secondary antibodies include: horseradish peroxidase-conjugated anti-rabbit and anti-mouse (GE Healthcare; Pittsburgh, PA). ECL 2 was used for chemiluminescent detection (Thermo Scientific; Rockford, IL). Densitometry was calculated using ImageJ (NIH).

EGFR = biological target: T1, EGFR (Homo sapiens, UniProt P00533); assay: EGF-induced EGFR activation, western blot, DU145; type: cell-based; conditions: DU145, 100 ng/ml EGF 20 minutes, 4 μM DIDS or 25 μM H2DIDS
T1 construct: 100 ng/ml EGF b; endogenous in cells; host or cells: DU145
Description: as §1

IGFR = biological target: T2, IGFR (Homo sapiens, UniProt P08069); assay: IGF-induced IGFR activation, western blot, DU145; type: cell-based; conditions: DU145, 100 ng/ml IGF 20 minutes, 4 μM DIDS or 25 μM H2DIDS
T2 construct: endogenous in cells; host or cells: DU145
T2 sequence (P08069 31-1367): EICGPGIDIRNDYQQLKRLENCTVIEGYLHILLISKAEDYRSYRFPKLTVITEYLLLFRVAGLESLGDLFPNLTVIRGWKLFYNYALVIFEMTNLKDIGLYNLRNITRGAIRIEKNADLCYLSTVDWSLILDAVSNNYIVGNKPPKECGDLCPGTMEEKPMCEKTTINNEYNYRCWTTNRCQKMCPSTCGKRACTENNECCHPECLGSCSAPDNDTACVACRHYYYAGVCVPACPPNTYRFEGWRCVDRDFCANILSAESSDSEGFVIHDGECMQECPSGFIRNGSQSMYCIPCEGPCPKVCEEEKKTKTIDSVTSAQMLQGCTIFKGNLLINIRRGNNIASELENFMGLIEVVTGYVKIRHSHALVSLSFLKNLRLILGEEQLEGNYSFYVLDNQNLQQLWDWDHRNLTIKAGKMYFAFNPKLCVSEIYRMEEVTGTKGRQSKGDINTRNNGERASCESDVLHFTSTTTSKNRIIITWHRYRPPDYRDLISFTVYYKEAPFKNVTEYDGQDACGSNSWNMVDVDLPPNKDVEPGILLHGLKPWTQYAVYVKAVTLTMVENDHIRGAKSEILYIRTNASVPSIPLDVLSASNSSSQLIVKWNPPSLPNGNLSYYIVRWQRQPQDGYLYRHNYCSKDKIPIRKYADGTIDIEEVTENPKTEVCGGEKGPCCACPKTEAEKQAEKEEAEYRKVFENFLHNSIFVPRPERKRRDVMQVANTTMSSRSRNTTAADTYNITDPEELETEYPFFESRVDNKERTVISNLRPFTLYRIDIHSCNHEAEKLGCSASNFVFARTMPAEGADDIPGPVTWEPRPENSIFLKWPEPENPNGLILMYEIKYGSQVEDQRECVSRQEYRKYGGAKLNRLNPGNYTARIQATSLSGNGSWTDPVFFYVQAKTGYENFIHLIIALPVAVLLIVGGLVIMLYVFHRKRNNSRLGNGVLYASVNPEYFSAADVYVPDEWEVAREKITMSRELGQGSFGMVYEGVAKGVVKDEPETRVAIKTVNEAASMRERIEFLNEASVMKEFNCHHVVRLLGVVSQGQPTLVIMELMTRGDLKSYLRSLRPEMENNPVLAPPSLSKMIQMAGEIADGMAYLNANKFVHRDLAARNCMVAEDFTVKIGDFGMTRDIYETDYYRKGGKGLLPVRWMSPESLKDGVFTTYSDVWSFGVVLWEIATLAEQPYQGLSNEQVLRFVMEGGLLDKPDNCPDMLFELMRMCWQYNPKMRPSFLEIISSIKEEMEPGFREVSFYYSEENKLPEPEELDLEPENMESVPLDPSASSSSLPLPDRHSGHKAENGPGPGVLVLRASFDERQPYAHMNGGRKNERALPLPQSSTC
Description: as §1

DU145 cells [1] = assay: HGF-induced cell scattering assay; type: cell-based; conditions: DU145, 33 ng/ml HGF overnight, 4 μM DIDS or 25 μM H2DIDS
Description: DU145 cells were grown to ~50% confluency. Cells were treated overnight with 4 μM DIDS or 25 μM H2DIDS in the presence or absence of 33 ng/ml HGF or 100 ng/ml EGF. Cells were fixed with 4% paraformaldehyde and stained with Oregon Green 488 phalloidin (Invitrogen; Carlsbad, CA). Images were acquired on an Eclipse TE300 inverted microscope (Nikon; Tokyo, Japan) with NIS Elements version 4.13.04 software. Presented images were taken using a 10X objective.

DU145 cells [2] = assay: HGF-induced wound healing; type: cell-based; conditions: DU145, 33 ng/ml HGF, 4 μM DIDS or 25 μM H2DIDS
Description: (§2) DU145 cells were grown to ~100% confluency prior to wounding with the IncuCyte™ WoundMaker™ (Essen Bioscience; Ann Arbor, MI) and washed once with complete media. For invasion, cells were covered with Matrigel diluted 1:5 in serum-free RPMI following wounding. Cells were treated with 4 μM DIDS or 25 μM H2DIDS with or without 33 ng/ml HGF or 100 ng/ml EGF for up to 4 days. Images were taken every 4 hours with the IncuCyte™ ZOOM imaging system (Essen Bioscience). Quadruplicate replicates were used in each experiment. Data are presented as percent wound density ± standard error of the mean (S.E.M.).

DU145 cells [3] = assay: EGF-induced wound healing; type: cell-based; conditions: DU145, 100 ng/ml EGF, 4 μM DIDS or 25 μM H2DIDS
Description: as §2

DU145 cells [4] = assay: HGF-induced invasion through Matrigel; type: cell-based; conditions: DU145, 33 ng/ml HGF, Matrigel diluted 1:5
Description: as §2

[5] = 2D proliferation (Cell Titer Blue); type: cell-based; conditions: up to 72 hours; for effect on serum-free proliferation (2D): serum-free RPMI
Description: Cells were seeded to ~30% confluency prior to treatment with DIDS or H2DIDS at 0.5 μM, 2 μM, 8 μM, 32 μM, or 64 μM for 24 hours, 48 hours, or 72 hours in complete or serum-free RPMI. A T0 timepoint was also measured. For each timepoint, cells were exposed to Cell Titer Blue reagent (Promega) for 1 hour at 37°C 5% CO2. Experiments were performed with quadruplicate replicates. Fluorescence was measured using a BioTek Synergy 4 plate reader with Gen5 software.

DU145 spheroids = assay: 3D spheroid proliferation in Matrigel; type: cell-based; conditions: 5 μM compound, 33 ng/ml HGF, 72 hours
Description: Prior to seeding, cells were incubated with 2.5 ng/μl CellTracker Red (Life Technologies) in complete DMEM lacking Phenol Red for 5 minutes at room temperature then centrifuged at 1000 RPM for 5 minutes. Dyed cells were resuspended in complete DMEM lacking Phenol Red and containing 5% Matrigel before adding 5 μM, 10 μM, 20 μM, or 40 μM DIDS or H2DIDS +/− HGF. The mixture of cells, treatments, and Matrigel in complete media was seeded at 2000 cells/well in a 96 well plate. The plate was centrifuged at 1000 RPM for 3 minutes to collect the cells into the bottom of the plate. Spheroid growth was imaged for up to 80 hours and analyzed for average red object area using the IncuCyte™ ZOOM software. […] Images were captured by the IncuCyte™ ZOOM imaging system and representative 10X images are shown.

wild-type c-Met = wild-type c-Met (Homo sapiens, UniProt P08581); assay: Z'-LYTE kinase phosphorylation inhibition assay, wild-type c-Met; type: biochemical
Sequence of wild-type c-Met (P08581 25-1390): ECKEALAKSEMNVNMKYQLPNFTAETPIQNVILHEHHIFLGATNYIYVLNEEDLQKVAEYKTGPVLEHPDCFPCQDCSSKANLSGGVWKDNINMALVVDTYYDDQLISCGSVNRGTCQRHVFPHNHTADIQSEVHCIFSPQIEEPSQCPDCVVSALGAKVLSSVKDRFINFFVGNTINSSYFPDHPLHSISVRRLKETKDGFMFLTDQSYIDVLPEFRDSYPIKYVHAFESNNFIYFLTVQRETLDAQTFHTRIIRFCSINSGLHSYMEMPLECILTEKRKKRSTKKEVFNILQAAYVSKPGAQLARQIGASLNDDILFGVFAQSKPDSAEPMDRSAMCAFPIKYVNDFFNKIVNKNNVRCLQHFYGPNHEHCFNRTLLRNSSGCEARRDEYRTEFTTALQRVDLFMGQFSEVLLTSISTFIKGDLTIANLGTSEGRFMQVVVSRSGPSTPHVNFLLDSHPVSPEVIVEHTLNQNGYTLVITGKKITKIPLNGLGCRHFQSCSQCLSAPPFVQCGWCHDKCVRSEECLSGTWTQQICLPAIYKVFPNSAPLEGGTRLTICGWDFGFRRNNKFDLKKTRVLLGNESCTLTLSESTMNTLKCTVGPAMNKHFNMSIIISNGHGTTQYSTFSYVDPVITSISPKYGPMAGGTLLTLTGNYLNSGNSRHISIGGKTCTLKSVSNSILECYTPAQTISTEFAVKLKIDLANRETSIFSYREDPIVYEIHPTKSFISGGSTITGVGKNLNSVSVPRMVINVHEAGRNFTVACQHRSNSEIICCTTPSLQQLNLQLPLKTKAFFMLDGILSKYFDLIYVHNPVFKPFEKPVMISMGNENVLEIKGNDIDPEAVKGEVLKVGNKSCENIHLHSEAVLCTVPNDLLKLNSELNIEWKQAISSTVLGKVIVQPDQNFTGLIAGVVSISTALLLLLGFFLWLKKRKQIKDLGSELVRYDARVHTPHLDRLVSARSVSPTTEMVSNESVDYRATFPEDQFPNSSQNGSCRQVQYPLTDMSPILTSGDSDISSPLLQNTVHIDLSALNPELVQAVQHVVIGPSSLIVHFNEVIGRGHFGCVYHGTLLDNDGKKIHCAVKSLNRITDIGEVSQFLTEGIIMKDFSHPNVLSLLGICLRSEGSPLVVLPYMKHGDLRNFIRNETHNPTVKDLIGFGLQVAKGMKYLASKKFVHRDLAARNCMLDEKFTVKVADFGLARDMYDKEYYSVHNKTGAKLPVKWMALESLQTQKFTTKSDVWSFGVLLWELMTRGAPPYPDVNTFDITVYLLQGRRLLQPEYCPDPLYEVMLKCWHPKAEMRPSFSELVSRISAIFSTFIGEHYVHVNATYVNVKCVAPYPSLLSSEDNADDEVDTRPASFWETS
Description: (§3) Z'-LYTE™ Kinase Assay-Tyr6 Peptide kit (Invitrogen) was used to assess the ability of tested compounds to inhibit c-Met phosphorylation. Briefly, 20 μl/well reactions were set up in 96-well plates containing kinase buffer, 200 μM ATP, 4 μM Z-LYTE™ Tyr6 Peptide substrate, 2500 ng/ml c-Met kinase and DIDS or H2DIDS at various concentrations. After 1 hour incubation at room temperature, 10 μl development solution containing site-specific protease was added to each well. Incubation was continued for 1 hour. The reaction was then stopped, and the fluorescent signal ratio of 445 nm (coumarin)/520 nm (fluorescein) was determined on a plate reader (BioTek FLx800™), which reflects the peptide substrate cleavage status and/or the kinase inhibitory activity in the reaction. […] The IC50 value for each compound was calculated by nonlinear regression of log concentration versus % c-Met phosphorylation ± S.E.M., implemented in GraphPad Prism version 5.0 (GraphPad Software, CA, USA).

c-Met M1250T (M1268T) = c-Met M1250T (M1268T) (Homo sapiens, UniProt P08581, M1250T); assay: Z'-LYTE kinase phosphorylation inhibition assay, mutant c-Met; type: biochemical; conditions: 200 μM ATP, cell-free
Sequence of c-Met M1250T (M1268T) (P08581 956-1390 M1250T limits assumed): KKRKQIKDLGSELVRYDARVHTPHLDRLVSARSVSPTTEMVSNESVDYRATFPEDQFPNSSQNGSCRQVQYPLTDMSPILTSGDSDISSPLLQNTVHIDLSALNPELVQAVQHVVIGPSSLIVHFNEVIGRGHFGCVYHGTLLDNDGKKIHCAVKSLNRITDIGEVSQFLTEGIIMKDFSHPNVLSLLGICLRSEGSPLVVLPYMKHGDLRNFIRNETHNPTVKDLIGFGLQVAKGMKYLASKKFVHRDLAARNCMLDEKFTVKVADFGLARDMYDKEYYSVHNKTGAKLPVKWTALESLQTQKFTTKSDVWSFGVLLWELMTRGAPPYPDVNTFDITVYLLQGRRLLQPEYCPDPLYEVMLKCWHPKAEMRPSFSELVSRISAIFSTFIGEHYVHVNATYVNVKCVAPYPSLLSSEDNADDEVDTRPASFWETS
Description: as §3

[6] = Tolerability in xenograft mice; type: in vivo
Description: (§4) All animal experiments were approved by the Institutional Animal Care and Use Committee, University of Louisiana at Monroe, and were handled in strict accordance with good animal practice as defined by the NIH guidelines. Athymic nude mice (Foxn1^nu/Foxn1^+, 4–5 weeks, female) were purchased from Harlan (Indianapolis, IN). The mice had free access to standard pellet food and water. The animals were acclimated to animal house facility conditions at a temperature of 18–25°C, with a relative humidity of 55 to 65% and a 12 h light/dark cycle, for one week prior to the experiments. MDA-MB-231/GFP human breast cancer cells were cultured and resuspended in serum-free DMEM medium (20 μl). After anesthesia, cell suspensions (1 × 10^6 cells/20 μl) were inoculated subcutaneously into the second mammary gland fat pad just beneath the nipple of each animal to generate orthotopic breast tumors. […] The mice were monitored by measuring tumor volume, body weight, and clinical observation. Tumor volume (V) was calculated by V = L/2 × W^2, where L was the length and W was the width of tumors. The results are presented as average ± S.E.M. Differences among various treatment groups were determined by the analysis of variance (ANOVA) followed by Dunnett's test using PASW statistics version 18. […]

[7] = tested on: MDA-MB-231/GFP human breast cancer cells; assay: Orthotopic breast tumor xenograft; type: in vivo; conditions: mice, 5 mg/kg then 10 mg/kg i.p.
Description: as §4

[8] = tested on: protein translocation across the ER membrane; parameters: method as in PMID 8396042; conditions: cited from earlier work
[9] = tested on: matrix metalloproteinase release; parameters: method as in PMID 22937143; conditions: cited from earlier work
c-Met [10] = biological target: T3, c-Met (Homo sapiens, UniProt P08581); assay: Constitutive pMet in c-Met amplified H1993 cells, western blot; type: cell-based; parameters: endogenous in cells; conditions: 5 μM compound, no HGF
T3 sequence (P08581 25-1390): as the sequence (P08581 25-1390) above
Description: as §1

c-Met [11] = biological target: T3, c-Met; assay: HGF-induced c-Met phosphorylation, western blot, DU145; type: cell-based; parameters: endogenous in cells; host or cells: DU145; conditions: for effective concentration for c-Met inhibition in 10% FBS versus serum-free: DU145, 33 ng/ml HGF 20 minutes, 10% FBS RPMI; for reduction of c-Met activation: 8 μM compound, western blot densitometry
Description: as §1

c-Met [12] = biological target: T3, c-Met; assay: Washout and reversal of c-Met phosphorylation in DU145, western blot; type: cell-based; parameters: endogenous in cells; host or cells: DU145; conditions: wash
Description: as §1

[13] = DU145, serum-free, 33 ng/ml HGF 20 minutes

Row | SMILES | effect on EGFR activation (EGFR) | effect on IGFR activation (IGFR) | effect on HGF-induced cell scattering (DU145 cells [1]) | effect on HGF-induced wound healing (DU145 cells [2]) | effect on EGF-mediated wound healing (DU145 cells [3]) | effect on HGF-induced invasion (DU145 cells [4]) | effect on proliferation in complete media (2D) [5] | effect on serum-free proliferation (2D) [5] | decrease of HGF-induced DU145 spheroid growth (DU145 spheroids) | effect on pMet levels in H1993 cells (c-Met [10]) | effective concentration for c-Met inhibition in 10% FBS versus serum-free (c-Met [11]) | reduction of c-Met activation (c-Met [11]; [13]) | also measured
1 | O=S(=O)(O)c1cc(N=C=S)ccc1C=Cc1ccc(N=C=S)cc1S(=O)(=O)O [DIDS, 4,4′-Diisothiocyanatostilbene-2,2′-disulfonic acid] | do not significantly reduce | do not significantly reduce | able to reduce HGF-induced | significantly reduced | minimal effects | reduce HGF-induced wound healing and invasion in a dose-dependent manner | minimal effects | minimal effects | ~ 60% | much less significant effects | slightly higher effective concentrations | ~ 90% | reduction of downstream Akt (Akt): ~ 90%; IC50 (wild-type c-Met; 200 μM ATP, cell-free, read-out: IC50, wild-type c-Met): 300 nM; IC50 (c-Met M1250T (M1268T)): 370 nM; signs of toxicity ([6]; 5 mg/kg intraperitoneally, ~2 weeks): No obvious signs of toxicity; body weight versus DMSO control ([6]; 5 mg/kg then 10 mg/kg i.p., 3X/week): no change in body weight; tumor size (caliper) ([7]; 3X/week): began to reduce tumor size towards the end of the experiment; tumor weight at necropsy ([7]; versus DMSO control): Differences in overall tumor weight were evident; concentration inhibiting protein translocation across the ER membrane [8]: ≥ 400 µM; concentration inhibiting matrix metalloproteinase release [9]: ≥ 400 µM; effect on pMet when given post HGF treatment (c-Met [12]; DU145, 33 ng/ml HGF 20 minutes, 4 μM for 20 or 60 minutes): reduced pMet levels; reversibility of c-Met inhibition after washout (c-Met [12]; DU145, 4 μM 20 minutes, then 33 ng/ml HGF 20 minutes): does not irreversibly bind c-Met
2 | O=[N+]([O-])c1ccc(C=Cc2ccc([N+](=O)[O-])cc2S(=O)(=O)O)c(S(=O)(=O)O)c1 [DNDS, 4,4′-dinitrostilbene-2,2′-disulfonic acid] |  |  |  |  |  |  |  |  |  |  |  |  | inhibition at 2000 µM (c-Met [11]; DU-145, read-out: inhibition of c-Met): ~90%
3 | O=S(=O)(O)c1cc(N=C=S)ccc1CCc1ccc(N=C=S)cc1S(=O)(=O)O [H2DIDS, 4,4′-Diisothiocyanatodihydrostilbene-2,2′-disulfonic acid] | do not significantly reduce | do not significantly reduce | able to reduce HGF-induced | significantly reduced | minimal effects | reduce HGF-induced wound healing and invasion in a dose-dependent manner | minimal effects | minimal effects | ~ 60% | much less significant effects | slightly higher effective concentrations | ~ 90% | IC50 (wild-type c-Met): 3600 nM
4 | CC(=O)Nc1ccc(C=Cc2ccc(N=C=S)cc2S(=O)(=O)O)c(S(=O)(=O)O)c1 [SITS, 4-acetamido-4′-isothiocyanatostilbene-2,2′-disulfonic acid] |  |  |  |  |  |  |  |  |  |  |  |  | inhibition at 250 µM (c-Met [11]; DU-145, DU145, serum-free, 33 ng/ml HGF 20 minutes, 250 μM compound): ~90%
5 | Cc1[nH]c(/C=C2\C(=O)Nc3ccc(S(=O)(=O)N(C)c4cccc(Cl)c4)cc32)c(C)c1C(=O)N1CCN(C)CC1 [SU11274] |  |  |  |  |  |  |  |  |  | ameliorated pMet levels |  |  | reduction of c-Met phosphorylation (wild-type c-Met; 500 nM compound, cell-free kinase assay): ~ 70%
